For eight compounds, IC50 results are on record in patent US7902218B2, “Substituted tetrahydroisoquinolines as β-secretase inhibitors” (Bristol-Myers Squibb Company, priority 2006, dated 2011).

One may read the IC50 as the concentration that gives 50% inhibition.

Like-named read-outs stand apart in the source and are kept apart here.

This assay concerns the target T1, BACE1 enzyme (Homo sapiens, UniProt P56817).
T1 construct: which overexpresses the BACE1 enzyme, was derived from HEK293 cells; endogenous in cells; washed 48,000 x g pellet of the cell homogenate
Kind of assay: Radioligand displacement assay with a radiolabeled BACE inhibitor, HEK293-9B.A1 cell homogenate. Type of assay: binding. From the text: There are a number of methods by which inhibitors of the BACE enzyme can be identified experimentally. The enzyme can be obtained from membrane samples from natural tissues or cultured cells or can be expressed recombinantly in a host cell by well known methods of molecular biology. […] The enzymatic activity and/or ligand binding capability of the enzyme can be assessed within these membrane samples, or the enzyme can be purified to varying extents. As an illustrative example, the nucleic acid sequence encoding the pro and catalytic domains of human BACE can be appended on the 5′ end with an untranslated and signal sequence from the gene for acetylcholinesterase, and on the 3′ end with a sequence encoding a poly-histidine tag. This cDNA can then be expressed in Drosophila melanogaster S2 cells in which the signal and pro sequences of the transcribed/translated protein are removed by cellular proteases and the catalytic domain, appended by a C-terminal poly-histidine tag, is secreted out into the cellular medium. The enzyme can then be purified from the culture medium by nickel affinity chromatography by methods well known to those trained in the art [Mallender, W. et al., “Characterization of recombinant, soluble beta-secretase from an insect cell expression system.” Mol. Pharmacol. 2001, 59: 619-626]. Similar strategies for expressing and purifying various forms of BACE in bacterial, mammalian and other cell types would be known to one skilled in the art.
Radioligand displacement assays with a radiolabeled BACE inhibitor (WO 2004 013098, compound 3, where the methoxy group is substituted for C(^3H)3) were carried out using standard methods (Keen, M. (1999) in Receptor Binding Techniques (Walker, J. M. ed) p. 106 Humana Press, Totowa, N.J.). The HEK293-9B.A1 cell line, which overexpresses the BACE1 enzyme, was derived from HEK293 cells (Simmons, N. L. (1990) A cultured human renal epithelioid cell line responsive to vasoactive intestinal peptide. Exp. Physiol. 75:309-19.) by RAGE™ (Harrington, J. J. et al. (2001) Creation of genome-wide protein expression libraries using random activation of gene expression. Nat. Biotechnol. 19:440-5.; U.S. Pat. Nos. 6,410,266 and 6,361,972). T225 flask cultures of HEK293-9B.A1 were grown to 80% confluency in DMEM supplemented with 2 mM L-glutamine, 10 μg/ml penecillin, 10 μg/ml streptomycin, 3 μg/ml puromycin, 100 nM methotrexate, and 10% fetal bovine serum (Invitrogen, Carlsbad, Calif.), harvested, and resuspended at 2×10^8 cells per 10 ml of lysis buffer consisting of 50 mM HEPES pH 7.0 containing a protease inhibitor cocktail of AEBSF 104 μM, aprotinin 80 nM, leupeptin 2 μM, bestatin 4 μM, pepstatin A 1.5 μM, and E-64 1.4 μM (0.1% of protease inhibitor cocktail P8340, Sigma-Aldrich, St. Louis, Mo.) at 4° C. The resuspended cells were homogenized using a Polytron (Brinkman, Westbury, N.Y.) at setting 6 for 10 sec., then centrifuged at 48,000×g for 10 min. The resulting pellet was washed by repeating the resuspension, homogenization and centrifugation steps. The final pellet was resuspended in buffer at 4° C. to yield a total protein concentration of 5 mg/ml, then aliquots were frozen in liquid nitrogen for further storage at −70° C. Immediately before carrying out a binding assay, an aliquot of cell homogenate was thawed and diluted to a concentration of 100 μg/ml in assay buffer consisting of 50 mM HEPES pH 5.0 and 0.1% CHAPSO. Assays were initiated in polypropylene 96-well plates (Costar, Cambridge, Mass.) by the addition of 200 μl of cell homogenate to 50 μl of assay buffer containing 1 nM radioligand (WO 2004 013098, compound 3, where the methoxy group is substituted for C(^3H)3: 80 Ci/mMol) and various concentrations of unlabelled compounds, and incubated for 1.5 hr. at 25° C. Separation of bound from free radioligand was by filtration on GFF glass fiber filters (Innotech Biosystems International, Lansing, Mich.) using an Innotech cell harvester.

Setting [1] is: displacement of 1 nM tritiated radioligand, HEK293-9B.A1 homogenate, pH 5.0, 1.5 hr at 25° C., read-out: Activity Rating (Activity based on IC50 values).

T1 sequence (P56817 46-501): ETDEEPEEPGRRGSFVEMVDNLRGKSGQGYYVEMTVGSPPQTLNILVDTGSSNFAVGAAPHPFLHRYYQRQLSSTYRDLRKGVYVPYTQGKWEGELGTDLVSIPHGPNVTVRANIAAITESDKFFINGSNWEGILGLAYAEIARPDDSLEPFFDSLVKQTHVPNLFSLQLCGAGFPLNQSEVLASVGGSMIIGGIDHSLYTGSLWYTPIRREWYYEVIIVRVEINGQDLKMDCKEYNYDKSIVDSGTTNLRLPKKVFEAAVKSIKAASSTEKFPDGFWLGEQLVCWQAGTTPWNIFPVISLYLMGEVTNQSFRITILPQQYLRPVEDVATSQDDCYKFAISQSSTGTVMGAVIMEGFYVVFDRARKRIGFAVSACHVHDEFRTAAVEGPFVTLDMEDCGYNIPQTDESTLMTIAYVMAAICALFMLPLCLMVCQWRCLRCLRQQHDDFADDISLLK

Regarding `CCC(C)[C@@]1(NC(C)=O)CCN([C@@H](CCc2ccccc2)C(=O)N[C@@H](Cc2cc(F)cc(F)c2)[C@H](O)[C@H]2Cc3ccccc3CN2)C1=O` (stereo in doubt) [Example 1, (S)-2-((S)-3-Acetamido-3-((R)-sec-butyl)-2-oxopyrrolidin-1-yl)-N-((1R,2S)-3-(3,5-difluorophenyl)-1-hydroxy-1-((R)-1,2,3,4-tetrahydroisoquinolin-3-yl)propan-2-yl)-4-phenylbutanamide], the IC50 under setting [1] was below 10 nM.

Turning to `CCC(C)[C@@]1(NC(C)=O)CCN([C@@H](CCc2ccccc2)C(=O)N[C@@H](Cc2cc(F)cc(F)c2)[C@H](O)[C@@H]2Cc3ccccc3CN2)C1=O` (stereo in doubt) [Example 2, (S)-2-((S)-3-Acetamido-3-((R)-sec-butyl)-2-oxopyrrolidin-1-yl)-N-((1R,2S)-3-(3,5-difluorophenyl)-1-hydroxy-1-((S)-1,2,3,4-tetrahydroisoquinolin-3-yl)propan-2-yl)-4-phenylbutanamide], the IC50 under setting [1] was 10 to 1000 nM.

Consider `CCCOc1cccc2c1CN[C@@H]([C@@H](O)[C@H](Cc1cc(F)cc(F)c1)NC(=O)[C@H](CCc1ccccc1)N1CC[C@](NC(C)=O)([C@H](C)CC)C1=O)C2` [Example 3, (S)-2-((S)-3-Acetamido-3-((R)-sec-butyl)-2-oxopyrrolidin-1-yl)-N-((1R,2S)-3-(3,5-difluorophenyl)-1-hydroxy-1-((R)-8-propoxy-1,2,3,4-tetrahydroisoquinolin-3-yl)propan-2-yl)-4-phenylbutanamide], for which the IC50 under setting [1] is below 10 nM.

In the case of `CCCC[C@H]1CCN([C@@H](CCc2ccccc2)C(=O)N[C@@H](Cc2cc(F)cc(F)c2)[C@H](O)[C@H]2Cc3ccccc3CN2)C1=O` [Example 4], the IC50 under setting [1] is above 1000 nM.

For `CCCC[C@H]1CCN([C@@H](C)C(=O)N[C@@H](Cc2cc(F)cc(F)c2)[C@H](O)[C@H]2Cc3ccccc3CN2)C1=O` [Example 5, (S)-2-((S)-3-Butyl-2-oxopyrrolidin-1-yl)-N-((1R,2S)-3-(3,5-difluorophenyl)-1-hydroxy-1-((R)-1,2,3,4-tetrahydroisoquinolin-3-yl)propan-2-yl)propanamide], under setting [1], the IC50 is above 1000 nM.

On to `CC(=O)N[C@]1(CC(C)C)CCN([C@@H](CCc2ccccc2)C(=O)N[C@@H](Cc2cc(F)cc(F)c2)[C@H](O)[C@H]2Cc3ccccc3CN2)C1=O` [Example 6, (S)-2-((R)-3-Acetamido-3-isobutyl-2-oxopyrrolidin-1-yl)-N-((1R,2S)-3-(3,5-difluorophenyl)-1-hydroxy-1-((R)-1,2,3,4-tetrahydroisoquinolin-3-yl)propan-2-yl)-4-phenylbutanamide], for which the concentration for half-maximal inhibition (IC50) under setting [1] was below 10 nM.

`CCC(C)[C@@]1(NC(C)=O)CCN([C@@H](CCc2ccccc2)C(=O)N[C@@H](Cc2cc(F)cc(F)c2)[C@H](O)C2Cc3cccc(OC)c3CN2)C1=O` (stereo partly drawn) [Example 7, (2S)-2-((S)-3-Acetamido-3-sec-butyl-2-oxopyrrolidin-1-yl)-N-((1R,2S)-3-(3,5-difluorophenyl)-1-hydroxy-1-(8-methoxy-1,2,3,4-tetrahydroisoquinolin-3-yl)propan-2-yl)-4-phenylbutanamide]: under setting [1], the IC50 was below 10 nM.

In turn, `CCCCN(C)C(=O)n1cc(C(=O)N[C@@H](Cc2cc(F)cc(F)c2)[C@H](O)C2Cc3ccccc3CN2)c2cccnc21` (stereo partly drawn) [Example 8, N^1-Butyl-N^3-((1R,2S)-3-(3,5-difluorophenyl)-1-hydroxy-1-(1,2,3,4-tetrahydroisoquinolin-3-yl)propan-2-yl)-N^1-methyl-1H-pyrrolo[2,3-b]pyridine-1,3-dicarboxamide] returned an IC50 above 1000 nM.
